One data set has as its system BuChE. As to conditions: read-out: IC50 (BuChE, by context); lignans from Citharexylum spinosum L.; cited from earlier work.
Data set [1] has as its system Jurkat (T-cell leukemia) cells. The data set can be described thus: Cell viability MTT assay, Jurkat. The data set is classed as cell-based. The conditions noted are these: 100, 50, 25 µM for 48 h, data not shown. On the procedure: HeLa (cervical carcinoma), Jurkat (T-cell leukemia), and U937 (monocytic leukemia) cell lines were obtained from the American Type Cell Culture (ATCC) (Rockville, MD, USA). Cells were maintained in DMEM (HeLa) or RPMI 1640 (Jurkat and U937), supplemented with 10% FBS, 100 mg/L streptomycin and penicillin 100 IU/mL at 37 °C in a humidified atmosphere of 5% CO2. To ensure logarithmic growth, cells were subcultured every two days. Stock solutions (50 mM) of purified compound in DMSO were stored in the dark at 4 °C. Appropriate dilutions were prepared in a culture medium immediately prior to use. […]
(§1) Cell viability was evaluated using a colorimetric assay based on an MTT ([3-(4,5-dimethylthiazol-2-yl)-2,5-diphenyltetrazolium bromide]) assay, in order to compare the effect of potentially cytotoxic substances with a control condition. […] The optical density (OD) of each well was measured with a microplate spectrophotometer (Multiskan Spectrum Thermo Electron Corporation reader, Thermo Fisher Scientific, Waltham, Massachusetts, United States) equipped with a 620 nm filter. Cell vitality was calculated as % vitality = 100 × (OD treated/OD DMSO).
In general terms: Tetrazolium dyes change colour on reduction, which living cells bring about.

For data set [2], the system named is U937 (monocytic leukemia) cells. The data set can be described thus: Cell viability MTT assay, U937. The data set is classed as cell-based. As to conditions: 100, 50, 25 µM for 48 h, data not shown. The procedure:
(§2) HeLa (cervical carcinoma), Jurkat (T-cell leukemia), and U937 (monocytic leukemia) cell lines were obtained from the American Type Cell Culture (ATCC) (Rockville, MD, USA). Cells were maintained in DMEM (HeLa) or RPMI 1640 (Jurkat and U937), supplemented with 10% FBS, 100 mg/L streptomycin and penicillin 100 IU/mL at 37 °C in a humidified atmosphere of 5% CO2. To ensure logarithmic growth, cells were subcultured every two days. Stock solutions (50 mM) of purified compound in DMSO were stored in the dark at 4 °C. Appropriate dilutions were prepared in a culture medium immediately prior to use.
as §1, with “condition. Briefly, cells were plated in 96-well tissue culture plates (3.5 × 10^3 cells/well) and after 24 h, the medium was replaced with a fresh one alone or one containing serial dilutions of compound 1 (100, 50, 25 µM), and incubation was performed for 48 h.” for “condition.”

Another data set has as its target α-glucosidase. Kind of data set: α-glucosidase inhibition assay. The data set is classed as biochemical. As to conditions: pure compound and standard. On the procedure: Results are expressed as IC50 values (mg/mL for extracts and µM for pure compound), using GraphPad Prism 8 Software (San Diego, CA, USA). The assay was carried out in triplicate.
Data set [3] deals with HeLa (cervical carcinoma) cells. The data set can be described thus: Cell viability MTT assay, HeLa. The conditions noted are these: 100, 50, 25 µM for 48 h, data not shown. In kind it is cell-based. The procedure:
as §2
as §1, with “condition. Briefly, cells were plated in 96-well tissue culture plates (3.5 × 10^3 cells/well) and after 24 h, the medium was replaced with a fresh one alone or one containing serial dilutions of compound 1 (100, 50, 25 µM), and incubation was performed for 48 h.” for “condition.”

Data set [4] deals with acetylcholinesterase (AChE) (Homo sapiens, UniProt P22303). Kind of data set: biochemical. As to conditions: read-out: % of inhibition against AChE. The procedure: (§3) The inhibition of AChE and BuChE was evaluated using Ellman’s method, as previously reported. Briefly, extracts and pure compound were incubated with AChE or BuChE (25 µL, 0.05 U/mL), DTNB (125 µL, 3 mM) and buffer B (25 µL, 50 mM Tris–HCl, pH 8 containing 0.1% BSA) for 10 min at 37 °C. Then, the substrate of the reaction, the acetylthiocholine iodide or butyrylthiocholine chloride (25 µL, 5 mM), was added, and the absorbance was measured at 405 nm, after 10 min. Galanthamine was used as the standard in both assays. Results are expressed as IC50 values (mg/mL for extracts and µM for pure compound), using GraphPad Prism 8 Software (San Diego, CA, USA). The test was carried out in triplicate.
Chain of acetylcholinesterase (AChE) (P22303 32-614, species assumed): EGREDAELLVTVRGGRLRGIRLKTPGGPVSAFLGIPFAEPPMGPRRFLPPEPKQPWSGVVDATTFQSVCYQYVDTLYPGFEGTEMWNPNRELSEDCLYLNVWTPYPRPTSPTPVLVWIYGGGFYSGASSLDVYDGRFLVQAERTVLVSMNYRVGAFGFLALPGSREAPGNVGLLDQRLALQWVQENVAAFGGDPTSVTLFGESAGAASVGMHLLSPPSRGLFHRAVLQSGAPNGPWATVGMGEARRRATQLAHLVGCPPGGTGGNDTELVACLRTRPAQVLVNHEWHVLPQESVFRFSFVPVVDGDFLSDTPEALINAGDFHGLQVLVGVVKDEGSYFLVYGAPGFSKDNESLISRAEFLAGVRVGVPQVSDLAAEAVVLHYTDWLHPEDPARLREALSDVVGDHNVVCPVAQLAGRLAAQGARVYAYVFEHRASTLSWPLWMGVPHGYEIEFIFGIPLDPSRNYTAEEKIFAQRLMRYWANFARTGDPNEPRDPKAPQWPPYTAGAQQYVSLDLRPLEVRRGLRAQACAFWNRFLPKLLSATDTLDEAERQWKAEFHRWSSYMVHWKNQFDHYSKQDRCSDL

Data set [5] concerns the target butyrylcholinesterase (BuChE) (Homo sapiens, UniProt P06276). Kind of data set: biochemical. On the procedure:
as §3

For data set [6], the system named is HaCaT epidermal keratinocytes. The data set can be described thus: Cell viability MTT assay, HaCaT. The data set is classed as cell-based. The conditions noted are these: 100, 50, 25 µM for 48 h, data not shown. The procedure:
Epidermal keratinocytes (HaCaT) were cultured in Dulbecco’s Modified Eagle’s Medium containing 10% fetal bovine serum, supplemented with 100 U/mL each of penicillin and streptomycin, and 2 mM/L glutamine, and grown at 37 °C under 5% CO2 air humidified atmosphere. Human leukemia cell lines (Jurkat) were maintained in RPMI medium supplemented with 10% FBS, 2 mM l-glutamine, 100 U/mL penicillin, and […] at 37 °C, in 5% CO2 [26].
as §1, with “condition. Briefly, cells were plated in 96-well tissue culture plates (3.5 × 10^3 cells/well) and after 24 h, the medium was replaced with a fresh one alone or one containing serial dilutions of compound 1 (100, 50, 25 µM), and incubation was performed for 48 h. Staurosporin 0.2 µM was used as a positive control.” for “condition.”

By IC50 is commonly meant the concentration needed to halve the response being measured. A word on the inhibition: it is the percentage by which the read-out fell short of the control.

Chain of butyrylcholinesterase (BuChE) (P06276 29-602): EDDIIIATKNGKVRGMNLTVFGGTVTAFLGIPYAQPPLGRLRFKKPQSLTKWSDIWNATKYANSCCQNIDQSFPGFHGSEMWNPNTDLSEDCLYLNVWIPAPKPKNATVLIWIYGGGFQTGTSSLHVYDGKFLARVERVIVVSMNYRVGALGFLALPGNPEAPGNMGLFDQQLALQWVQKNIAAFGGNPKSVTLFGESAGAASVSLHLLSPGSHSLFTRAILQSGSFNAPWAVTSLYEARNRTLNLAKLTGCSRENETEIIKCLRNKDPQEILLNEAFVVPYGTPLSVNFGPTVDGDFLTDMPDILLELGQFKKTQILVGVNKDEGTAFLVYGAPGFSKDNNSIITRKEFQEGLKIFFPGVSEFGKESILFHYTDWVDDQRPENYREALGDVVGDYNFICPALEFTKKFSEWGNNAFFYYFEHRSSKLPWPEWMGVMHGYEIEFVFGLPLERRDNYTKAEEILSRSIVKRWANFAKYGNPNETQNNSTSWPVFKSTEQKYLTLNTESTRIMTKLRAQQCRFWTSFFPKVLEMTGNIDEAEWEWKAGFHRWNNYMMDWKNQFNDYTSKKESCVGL

In the case of plucheoside D2, the IC50 in the data set on BuChE was 71.3 ± 2.82 µM.

plucheoside D1: the IC50 in the data set with BuChE is 98.1 ± 2.72 µM.

For the molecule `COc1cc(C[C@@H]2CO[C@@H](c3ccc(O)c(OC)c3)[C@@H]2COC(=O)c2ccccc2)ccc1O` [Compound 1, 4-benzoic acid 4-(4-hydroxy-3-meethoxybenzyl)-2-(4-hydroxy-3-methoxyphenyl) tetrahydrofuran-3-ylmethyl ester], the “cytotoxicity (MTT)” value in data set [1], in data set [2], in data set [3] and in data set [6] was “not toxic” throughout. Further, the IC50 on α-glucosidase was determined as 26.8 ± 3.29 µM; in data set [5] it was 10.41 ± 0.03 µM. For the same molecule, the inhibition at 100 µM in data set [4] amounted to 21%.

(Values after PMC9865629, “Rhanteriol, a New Rhanterium suaveolens Desf. Lignan with Pharmacological Potential as an Inhibitor of Enzymes Involved in Neurodegeneration and Type 2 Diabetes” (Plants, 2023).)
